According to patent US20250136592A1, “C-LINKED INHIBITORS OF ENL/AF9 YEATS” (Bridge Medicines, priority 2021, published 2025):

What was measured:
ENL YEATS domain = ENL YEATS domain (Homo sapiens (Human), UniProt Q03111); assay: TR-FRET ENL Screening Assay; details: 6xHIS ENL YEATS domain binding to H3K9cr peptide
Method: Compounds of the invention were tested in a TR-FRET ENL Screening Assay. TR-FRET (time-resolved fluorescence energy transfer) can be used to quantify ENL YEATS domain binding to a crotonylated histone peptide (H3K9cr, aa1-20). Streptavidin-Europium (Eu) chelate binds the biotinylated peptide, while Anti-6×HIS ULight™ binds 6×HIS-ENL. When Eu chelate is excited at 320 nm, fluorescence resonance energy transfer (FRET) occurs if Eu and ULight are made proximal by ENL binding to the acyl-peptide.
Low control (LC) wells received 5 μL of assay buffer instead of ENL protein. […] The response at each compound concentration minus the LC value was converted to percent inhibition of the vehicle control group response (HC-LC).

[1] = tested on: MV4:11 (MLL-AF4 MLL) cells; assay: Cell viability assay (CellTiter-Glo), 12 days; assay type: cell-based; details: Homo sapiens, 288 h, MV4;11 cells, 12 day, read-out: CTG_MV4, 11 12 DAY_EC50
Method: The assays were conducted over 12 days and the cells being split on days 4 and 8. […] Blank wells received cell culture medium. Plates were incubated for 4 days at 37° C. with 5% CO2. On days 4 and day 8 the cells were split and incubated for a further 4 days whilst an aliquot of cells were taken for the CTG readout. For the cell splitting, 270 nL of compounds or DMSO was added to a new 96 well cell culture plate to which 90 μL of medium plus 10 μL of cells from the original assay plate (after mixing) or 100 μL of medium (Blank wells) was added. This was repeated on day 8.
Cell viability was assessed using the CellTiter-Glo® homogeneous luminescent assay kit (Promega, G9243), according to the manufacturer's instructions. This quantifies ATP, which indicates the presence of metabolically active cells. […] The resulting data were analyzed as follows:
where vehicle are cells treated with 0.3% DMSO, Blank is culture medium. IC50 determinations were calculated by fitting the curve using XLfit (v5.3.1.3): Y=Bottom+(Top−Bottom)/(1+10^((LogIC50−X)*HillSlope)).

ENL YEATS domain, sequence (Q03111 1-138): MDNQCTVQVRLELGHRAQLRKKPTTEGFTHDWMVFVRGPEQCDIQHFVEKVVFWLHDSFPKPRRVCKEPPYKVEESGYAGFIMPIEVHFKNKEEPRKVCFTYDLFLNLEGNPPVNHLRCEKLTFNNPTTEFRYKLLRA

IC50 (ENL YEATS domain): 145 nM
EC50 [1]: 416 nM
Structure (SMILES): CN1C(=O)COc2cc(C(=O)Nc3cc4[nH]c([C@H]5CCCCN5C)cc4cn3)ccc21 [Example 105, (R)-4-methyl-N-(2-(1-methylpiperidin-2-yl)-1H-pyrrolo[3,2-c]pyridin-6-yl)-3-oxo-3,4-dihydro-2H-benzo[b][1,4]oxazine-7-carboxamide]
